In US12599672B2, “KRAS proteolysis targeting chimeras” (PAQ Therapeutics Inc., priority 2023, dated 2026) one finds DC50 data, which are given here for twelve compounds.

One test addresses T1, KRAS G12D (Homo sapiens, UniProt P01116, G12D).
T1 construct: AsPc-1-KRAS (G12D)-HiBit-KI cell (Pharmaron); host or cells: AsPc-1-KRAS (G12D)-HiBit-KI cells (HiBiT knock-in at the endogenous KRAS locus)
The experiment in a line: KRAS G12D HiBit assay. It is filed as cell-based. The conditions noted are these: AsPc-1-KRAS (G12D)-HiBit-KI cell, compound treatment for 24 hours, absolute DC50. A digest of the protocol:
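HiBiT luminescence, detected by adding lytic buffer, substrate and LgBiT protein, served as the KRAS G12D read-out. Compounds, serially diluted 3-fold over 10 points from 0.3 mM DMSO stock, were on cells for 24 h; percent inhibition normalized to cells given 0.1% DMSO only.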

Another test deals with T2, KRAS G12V (Homo sapiens, UniProt P01116, G12V).
T2 construct: SW620-KRAS (G12V)-HiBit-KI cell (Pharmaron); host or cells: SW620-KRAS (G12V)-HiBit-KI cells (HiBiT knock-in at the endogenous KRAS locus)
The experiment in a line: KRAS G12V HiBit assay. The format is cell-based. The conditions noted are these: SW620-KRAS (G12V)-HiBit-KI cells, compound treatment for 24 hours, class symbols. A digest of the protocol:
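Luminescence from lytic Nano-Glo HiBiT detection with LgBiT read KRAS G12V levels after 24 h compound exposure. Dilutions were 10-point, 3-fold, from a 0.3 mM DMSO stock. Degradation activity was normalised to cells given 0.1% DMSO alone.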

The mark [1] stands for this setting: numeric bounds given in place of class symbols.

T1 sequence (P01116 1-188 isoform P01116-2 G12D): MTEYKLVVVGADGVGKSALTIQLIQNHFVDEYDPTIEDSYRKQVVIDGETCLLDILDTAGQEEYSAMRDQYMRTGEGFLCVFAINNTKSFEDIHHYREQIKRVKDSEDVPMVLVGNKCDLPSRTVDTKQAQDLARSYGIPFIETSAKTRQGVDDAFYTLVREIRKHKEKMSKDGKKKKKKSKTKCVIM
T2 sequence (P01116 1-188 isoform P01116-2 G12V): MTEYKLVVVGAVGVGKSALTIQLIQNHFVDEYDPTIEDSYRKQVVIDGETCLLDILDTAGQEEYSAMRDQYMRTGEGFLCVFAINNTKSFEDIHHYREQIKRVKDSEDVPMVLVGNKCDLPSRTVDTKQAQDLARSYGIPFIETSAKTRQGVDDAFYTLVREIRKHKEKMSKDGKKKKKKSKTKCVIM

As for `CCc1cccc2cc(O)cc(-c3cc4nc(OC[C@@]56CCCN5[C@H](COC(=O)N5CCC7(CC5)CC(N5CCC(c8ccc9c(c8)n(C)c(=O)n9C8CCC(=O)NC8=O)CC5)C7)CC6)nc(N5CCC[C@@](C)(O)C5)c4cn3)c12` (stereo partly drawn) [Compound 487, ((3S,7aS)-7a-(((7-(8-ethyl-3-hydroxynaphthalen-1-yl)-4-((R)-3-hydroxy-3-methylpiperidin-1-yl)pyrido[4,3-d]pyrimidin-2-yl)oxy)methyl)hexahydro-1H-pyrrolizin-3-yl)methyl 2-(4-(1-(2,6-dioxopiperidin-3-yl)-3-methyl-2-oxo-2,3-dihydro-1H-benzo[d]imidazol-5-yl)piperidin-1-yl)-7-azaspiro[3.5]nonane-7-carboxylate], the DC50 on KRAS G12D (class symbols) was less than 100 nM; at KRAS G12V it was less than 10 nM.

For the compound `Cn1c(=O)n(C2CCC(=O)NC2=O)c2ccc(C3CCN(CC4CCN(C(=O)CN5CCN(c6nccc(-c7noc([C@@]8(C)CCCc9sc(N)c(C#N)c98)n7)n6)CC5)CC4)CC3)cc21` (stereo partly drawn) [Compound 224], the DC50 was greater than 300 nM on KRAS G12D (class symbols) and greater than 100 nM at KRAS G12V.

As to `CCc1c(F)ccc2cc(O)cc(-c3ncc4c(N5CCC[C@@](C)(O)C5)nc(OCC56CCCN5C(COCCCN5CCC(c7ccc8c(c7)n(C)c(=O)n8C7CCC(=O)NC7=O)CC5)CC6)nc4c3F)c12` (stereo partly drawn) [Compound 449, 3-(5-(1-(3-((7a-(((7-(8-ethyl-7-fluoro-3-hydroxynaphthalen-1-yl)-8-fluoro-4-((R)-3-hydroxy-3-methylpiperidin-1-yl)pyrido[4,3-d]pyrimidin-2-yl)oxy)methyl)hexahydro-1H-pyrrolizin-3-yl)methoxy)propyl)piperidin-4-yl)-3-methyl-2-oxo-2,3-dihydro-1H-benzo[d]imidazol-1-yl)piperidine-2,6-dione], the DC50 on KRAS G12D (setting [1]) is greater than 100 nM; on KRAS G12V, 10 to 100 nM.

With `C#Cc1c(F)ccc2cc(O)cc(-c3ncc4c(N5CCC[C@@](C)(O)C5)nc(OCC5(CN6CCC(CN7CCC(c8ccc9c(c8)n(C)c(=O)n9C8CCC(=O)NC8=O)CC7)CC6)CC5)nc4c3F)c12` (stereo partly drawn) [Compound 47], the DC50 at KRAS G12D (class symbols) is less than 100 nM; on KRAS G12V, greater than 100 nM.

Turning to `CCc1c(F)ccc2cc(O)cc(-c3ncc4c(N5CCC[C@@](C)(O)C5)nc(OC[C@@]56CCCN5[C@H](COC(=O)N5CCC(CN7C8CCC7CC(c7ccc9c(c7)n(C)c(=O)n9C7CCC(=O)NC7=O)C8)CC5)CC6)nc4c3F)c12` (stereo partly drawn) [Compound 393, ((3S,7aS)-7a-(((7-(8-ethyl-7-fluoro-3-hydroxynaphthalen-1-yl)-8-fluoro-4-((R)-3-hydroxy-3-methylpiperidin-1-yl)pyrido[4,3-d]pyrimidin-2-yl)oxy)methyl)hexahydro-1H-pyrrolizin-3-yl)methyl 4-((3-(1-(2,6-dioxopiperidin-3-yl)-3-methyl-2-oxo-2,3-dihydro-1H-benzo[d]imidazol-5-yl)-8-azabicyclo[3.2.1]octan-8-yl)methyl)piperidine-1-carboxylate], the values for the DC50 at KRAS G12D (class symbols) and at KRAS G12V were less than 100 nM and 10 to 100 nM, respectively.

For `C#Cc1c(F)ccc2cccc(-c3ncc4c(N5CCC[C@@](C)(O)C5)nc(OCC5(CN6CCC(CN7CCC(c8cccc9c8n(C)c(=O)n9C8CCC(=O)NC8=O)CC7)CC6)CC5)nc4c3F)c12` (stereo partly drawn) [Compound 60], the DC50 at KRAS G12D (class symbols) is less than 100 nM; at KRAS G12V, greater than 100 nM.

With `CCc1c(F)ccc2cc(O)cc(-c3ncc4c(N5CCC[C@@](C)(O)C5)nc(OC[C@@]56CCCN5[C@H](CN(C)C(=O)c5ccc(CN7CCC(c8ccc9c(c8)n(C)c(=O)n9C8CCC(=O)NC8=O)CC7)cc5)CC6)nc4c3F)c12` (stereo partly drawn) [Compound 503, 4-((4-(1-(2,6-dioxopiperidin-3-yl)-3-methyl-2-oxo-2,3-dihydro-1H-benzo[d]imidazol-5-yl)piperidin-1-yl)methyl)-N-(((3S,7aS)-7a-(((7-(8-ethyl-7-fluoro-3-hydroxynaphthalen-1-yl)-8-fluoro-4-((R)-3-hydroxy-3-methylpiperidin-1-yl)pyrido[4,3-d]pyrimidin-2-yl)oxy)methyl)hexahydro-1H-pyrrolizin-3-yl)methyl)-N-methylbenzamide], the DC50 is less than 100 nM on KRAS G12D (class symbols) and less than 10 nM on KRAS G12V.

Regarding `CCc1c(F)ccc2cc(O)cc(-c3ncc4c(N5CCC[C@@](C)(O)C5)nc(OC[C@@]56CCCN5[C@H](CCCN5CCC7(CC5)CC(N5CCC(c8ccc9c(c8)n(C)c(=O)n9C8CCC(=O)NC8=O)CC5)C7)CC6)nc4c3F)c12` (stereo partly drawn) [Compound 472, 3-(5-(1-(7-(3-((3R,7aS)-7a-(((7-(8-Ethyl-7-fluoro-3-hydroxynaphthalen-1-yl)-8-fluoro-4-((R)-3-hydroxy-3-methylpiperidin-1-yl)pyrido[4,3-d]pyrimidin-2-yl)oxy)methyl)hexahydro-1H-pyrrolizin-3-yl)propyl)-7-azaspiro[3.5]nonan-2-yl)piperidin-4-yl)-3-methyl-2-oxo-2,3-dihydro-1H-benzo[d]imidazol-1-yl) piperidine-2,6-dione], the DC50 on KRAS G12D (class symbols) is less than 100 nM; on KRAS G12V, 10 to 100 nM.

For the compound `CCc1c(F)ccc2cc(O)cc(-c3ncc4c(N5CCC[C@@](C)(O)C5)nc(OC[C@@]56CCCN5[C@@H](COC(=O)N5CCC(Oc7cccc8c7n(C)c(=O)n8C7CCC(=O)NC7=O)CC5)CC6)nc4c3F)c12` (stereo partly drawn) [Compound 313, ((3R,7aS)-7a-(((7-(8-ethyl-7-fluoro-3-hydroxynaphthalen-1-yl)-8-fluoro-4-((R)-3-hydroxy-3-methylpiperidin-1-yl)pyrido[4,3-d]pyrimidin-2-yl)oxy)methyl)hexahydro-1H-pyrrolizin-3-yl)methyl 4-((1-(2,6-dioxopiperidin-3-yl)-3-methyl-2-oxo-2,3-dihydro-1H-benzo[d]imidazol-4-yl)oxy)piperidine-1-carboxylate], the DC50 on KRAS G12D (setting [1]) and at KRAS G12V was greater than 100 nM throughout.

`CCc1c(F)ccc2cc(O)cc(-c3ncc4c(N5CCC[C@@](C)(O)C5)nc(OC[C@@]56CCCN5[C@H](COC(=O)N5CCC(N7CC8(CCN(c9ccc%10c(c9)n(C)c(=O)n%10C9CCC(=O)NC9=O)CC8)C7)CC5)CC6)nc4c3F)c12` (stereo partly drawn) [Compound 362, ((3S,7aS)-7a-(((7-(8-ethyl-7-fluoro-3-hydroxynaphthalen-1-yl)-8-fluoro-4-((R)-3-hydroxy-3-methylpiperidin-1-yl)pyrido[4,3-d]pyrimidin-2-yl)oxy)methyl)hexahydro-1H-pyrrolizin-3-yl)methyl 4-(7-(1-(2,6-dioxopiperidin-3-yl)-3-methyl-2-oxo-2,3-dihydro-1H-benzo[d]imidazol-5-yl)-2,7-diazaspiro[3.5]nonan-2-yl)piperidine-1-carboxylate]: the results for the DC50 at KRAS G12D (class symbols) and on KRAS G12V were less than 100 nM and less than 10 nM, respectively.

For the compound `C#Cc1c(F)ccc2cc(O)cc(-c3ncc4c(N5CCC[C@@](C)(O)C5)nc(OCC5(CN6CCN(CCN7CCN(c8ccc9c(c8)n(C)c(=O)n9C8CCC(=O)NC8=O)CC7)CC6)CC5)nc4c3F)c12` (stereo partly drawn) [Compound 28], the results for the DC50 on KRAS G12D (class symbols) and on KRAS G12V were less than 100 nM and greater than 100 nM, respectively.

Turning to `C#Cc1c(F)ccc2cccc(-c3ncc4c(N5CCCC(C#N)CC5)nc(OC[C@@]56CCCN5[C@H](COC(=O)NCCOc5ccc7c(c5)n(C)c(=O)n7C5CCC(=O)NC5=O)CC6)nc4c3F)c12` (stereo partly drawn) [Compound 116, ((3S,7aS)-7a-(((4-(4-cyanoazepan-1-yl)-7-(8-ethynyl-7-fluoronaphthalen-1-yl)-8-fluoropyrido[4,3-d]pyrimidin-2-yl)oxy)methyl)hexahydro-1H-pyrrolizin-3-yl)methyl (2-((1-(2,6-dioxopiperidin-3-yl)-3-methyl-2-oxo-2,3-dihydro-1H-benzo[d]imidazol-5-yl)oxy)ethyl) carbamate], the figures for the DC50 on KRAS G12D (class symbols) and at KRAS G12V were greater than 300 nM and greater than 100 nM, respectively.
